The values below come from patent publication US12435128B2, “Method for predicting therapeutic effect of LSD1 inhibitor based on expression of INSM1” (TAIHO PHARMACEUTICAL CO., LTD., priority 2017, dated 2025).

What all share (type): cell-based
In experiment [1] the test system is NCI-H146 cells (human small-cell lung cancer cell lines). The experiment is described as follows: Cell-growth inhibition test: NCI-H146 cells. On the procedure:
(§1) Under the following conditions, an in vitro cell-growth inhibition test was performed with respect to HEL cells (human acute myelocytic leukemia cell lines), NCI-H1417 cells (human small-cell lung cancer cell lines), and NCI-H146 cells (human small-cell lung cancer cell lines).
(§2) The cells with the Example compound or with dimethylsulfoxide alone were cultured at 37° C. in a 5% carbon-dioxide-containing incubator for 5 days (HEL cells) or 10 days (NCI-H1417 cells and NCI-H146 cells). After culture, the plate was allowed to stand at room temperature for 30 minutes, and 100 μL of the supernatant was removed from each well to leave 100 μL of the cell culture solution. To each well containing the remaining 100 μL of the cell culture solution, the same amount of CellTiter-Glo 2.0 Assay (Promega, Cat #: G9242) was added. The microplate was shaken with a plate mixer for 1 minute and then allowed to stand in a dark place for 10 minutes. Thereafter, the luminescence intensity of viable cells in each well was measured using a microplate reader (PerkinElmer, EnSpire). […] Cell growth rate(%)=T/C×100 • T: The luminescence intensity in a well to which the test compound was added (count per second) • C: The luminescence intensity in a well to which dimethylsulfoxide alone was added (count per second)

Experiment [2] concerns HEL cells (human acute myelocytic leukemia cell lines). The experiment can be described thus: Cell-growth inhibition test: HEL cells. Conditions: read-out: IC50 (nM), Cell-Growth Inhibition Test: HEL Cells. On the procedure:
as §1, §2

Experiment [3] deals with NCI-H1417 cells (human small-cell lung cancer cell lines). The experiment can be described thus: Cell-growth inhibition test: NCI-H1417 cells. On the procedure:
as §1, §2

Setting [4] is: Homo sapiens, NCI-H146, read-out: IC50 (nM), Cell-Growth Inhibition Test: NCI-H146 Cells.
The mark [5] stands for this setting: read-out: IC50 (nM), Cell-Growth Inhibition Test: NCI-H1417 Cells.
[6] abbreviates: NCI-H146 cells, read-out: IC50 (nM), Cell-Growth Inhibition Test: NCI-H146 Cells.
The mark [7] stands for this setting: NCI-H1417 cells, read-out: IC50 (nM), Cell-Growth Inhibition Test: NCI-H1417 Cells.
Where [8] appears, read: Homo sapiens, NCI-H1417, read-out: IC50 (nM), Cell-Growth Inhibition Test: NCI-H1417 Cells.

Structures can show the parent of a compound that is named as a salt. Where two headings read alike, the source gives them in different places.

Take `CC(C)(O)Cn1ncc2cc(-c3ccc(C(=O)N4[C@@H]5CC[C@H]4[C@@H](N)C5)cc3-c3ccc(C#N)c(F)c3)c(F)c(F)c21` (relative stereo) [Example 195, 5′-((1S,2S,4R)-rel-2-amino-7-azabicyclo[2.2.1]heptane-7-carbonyl)-2′-(6,7-difluoro-1-(2-hydroxy-2-methylpropyl)-1H-indazol-5-yl)-3-fluoro-[1,1′-biphenyl]-4-carbonitrile]: in experiment [1] (setting [4]), the IC50 (commonly the concentration at which inhibition is half-maximal) stood at 1.28 nM.

Take `Cc1noc2cc(-c3ccc(C(=O)N4[C@@H]5CC[C@H]4[C@@H](N)C5)cc3-c3ccc(C#N)c(F)c3)c(F)cc12` (single isomer, unassigned) [Example 202]: the 50% inhibitory concentration (IC50) in experiment [2] stood at 0.24 nM; in experiment [3] (setting [5]), 0.62 nM; in experiment [1] (setting [6]), 0.73 nM.

Take `CCC(O)(CC)Cn1ncc2cc(-c3ccc(C(=O)N4[C@@H]5CC[C@H]4[C@@H](N)C5)cc3-c3ccc(C#N)c(F)c3)c(F)cc21` (single isomer, unassigned) [Example 206]: the concentration for half-maximal inhibition (IC50) in experiment [2] was 0.4 nM; in experiment [3] (setting [5]), 0.95 nM; in experiment [1] (setting [6]), 1.09 nM.

On to `CC(C)(O)Cn1nnc2cc(-c3ccc(C(=O)N4[C@@H]5CC[C@H]4[C@@H](N)C5)cc3-c3ccc(C#N)c(F)c3)c(F)c(Cl)c21` (single isomer, unassigned) [Example 209], for which the IC50 turned out to be 0.24 nM in experiment [2] and 0.22 nM in experiment [1] (setting [6]).

As to `CCC(O)(CC)Cn1nnc2cc(-c3ccc(C(=O)N4[C@@H]5CC[C@H]4[C@@H](N)C5)cc3-c3ccc(C#N)c(F)c3)c(F)c(Cl)c21` (single isomer, unassigned) [Example 218], the values for the IC50 in experiment [2], in experiment [3] (setting [5]) and in experiment [1] (setting [6]) were 0.22 nM, 0.21 nM and 0.33 nM, respectively.

On to `CC(C)(O)Cn1cc(C(=O)O)c2cc(-c3ccc(C(=O)N4[C@@H]5CC[C@H]4[C@@H](N)C5)cc3-c3ccc(C#N)c(F)c3)c(F)cc21` (single isomer, unassigned) [Example 222], for which the 50% inhibitory concentration (IC50) in experiment [2] was found to be 38 nM; in experiment [3] (setting [5]) it was 41.8 nM.

In the case of `Cn1cc(C(N)=O)c2cc(-c3ccc(C(=O)N4[C@@H]5CC[C@H]4[C@@H](N)C5)cc3-c3ccc(C#N)c(F)c3)c(F)cc21` (single isomer, unassigned) [Example 236], the IC50 is 11 nM in experiment [3] (setting [5]) and 28.5 nM in experiment [1] (setting [6]).

In the case of `CC(C)(O)Cn1nnc2cc(-c3ccc(C(=O)N4[C@@H]5CC[C@H]4[C@@H](N)C5)cc3-c3ccc(C#N)c(F)c3)c(F)c(C(F)F)c21` (single isomer, unassigned) [Example 246], the values for the concentration for half-maximal inhibition (IC50) in experiment [2] and in experiment [3] (setting [5]) were 0.37 nM and 0.81 nM, respectively.

As to `N#Cc1ccc(-c2cc(C(=O)N3[C@@H]4CC[C@H]3[C@@H](N)C4)ccc2-c2cc3nnn(CC4(O)CCC4)c3c(Cl)c2F)cc1F` (single isomer, unassigned) [Example 257], the 50% inhibitory concentration (IC50) in experiment [2] came out at 0.13 nM; in experiment [1] (setting [6]), 0.39 nM.

In the case of `CC(C)(O)Cn1nnc2cc(-c3ccc(C(=O)N4[C@@H]5CC[C@H]4[C@@H](N)C5)cc3-c3ccc(C#N)c(F)c3)c(F)c(Br)c21` (single isomer, unassigned) [Example 273], the results for the half-inhibitory concentration (IC50) in experiment [2] and in experiment [1] (setting [6]) were 0.27 nM and 0.63 nM, respectively.

Consider `CC(C)(O)Cn1nnc2cc(-c3ccc(C(=O)N4[C@H]5CC[C@@H]4[C@H](N)C5)cc3-c3ccc(C#N)c(F)c3)c(F)c(C3CC3)c21` (single isomer, unassigned) [Example 279], for which the half-maximal inhibitory concentration (IC50) was determined as 1.59 nM in experiment [2] and 0.9 nM in experiment [3] (setting [5]).

For the molecule `CC(C)(O)Cn1ncc2cc(-c3ccc(CN4[C@@H]5CC[C@H]4[C@@H](N)C5)cc3-c3ccc(C#N)c(F)c3)c(F)cc21` (single isomer, unassigned) [Example 287, dihydrochloride], the figures for the IC50 in experiment [3] (setting [5]) and in experiment [1] (setting [6]) were 0.1 nM and 0.2 nM, respectively.

In the case of `CC(C)(O)Cc1ccc(-c2ccc(CN3[C@@H]4CC[C@H]3[C@@H](N)C4)cc2-c2ccc(C#N)c(F)c2)c(F)c1` (single isomer, unassigned) [Example 290, dihydrochloride], the IC50 in experiment [3] (setting [5]) was 1.06 nM; in experiment [1] (setting [6]) it was 2.12 nM.

On to `Cc1ccc(-c2ccc(C(=O)N3C4CCC3CC(N)C4)cc2-c2ccc(C#N)cc2)cc1` (stereo not drawn) [Example 7, 4-[5-[(3-exo)-3-amino-8-azabicyclo[3.2.1]octane-8-carbonyl]-2-(p-tolyl)phenyl]benzonitrile], for which the figures for the half-maximal inhibitory concentration (IC50) in experiment [2] (HEL cells) and in experiment [3] (setting [7]) were 14.8 nM and 26 nM, respectively.

Turning to `Cn1cnc2cc(-c3ccc(C(=O)N4C5CCC4CC(N)C5)cc3-c3ccc(C#N)c(F)c3)c(F)cc21` (stereo not drawn) [Example 108, 4-[5-[(3-exo)-3-amino-8-azabicyclo[3.2.1]octane-8-carbonyl]-2-(6-fluoro-1-methyl-benzimidazol-5-yl)phenyl]-2-fluoro-benzonitrile], the half-inhibitory concentration (IC50) worked out at 36.4 nM in experiment [2] (HEL cells) and 3.99 nM in experiment [3] (setting [7]).

On to `Cn1nnc2cc(-c3ccc(C(=O)N4C5CCC4CC(N)C5)cc3-c3ccc(C#N)c(F)c3)c(F)cc21` (stereo not drawn) [Example 125, 4-[5-[(3-endo)-3-amino-8-azabicyclo[3.2.1]octane-8-carbonyl]-2-(6-fluoro-1-methyl-benzotriazol-5-yl)phenyl]-2-fluoro-benzonitrile], for which the concentration for half-maximal inhibition (IC50) is 7.57 nM in experiment [2] (HEL cells) and 8.43 nM in experiment [3] (setting [7]).

Turning to `Cn1cnc2cc(-c3ccc(C(=O)N4C5CCC4CC(N)C5)cc3-c3ccc(C#N)c(F)c3)c(F)cc21` (stereo not drawn) [Example 130, 4-[5-[(3-endo)-3-amino-8-azabicyclo[3.2.1]octane-8-carbonyl]-2-(6-fluoro-1-methyl-benzimidazol-5-yl)phenyl]-2-fluoro-benzonitrile], the IC50 was found to be 22.2 nM in experiment [2] (HEL cells) and 8.25 nM in experiment [3] (setting [7]).

As to `Cn1c(=O)sc2cc(-c3ccc(C(=O)N4C5CCC4CC(N)C5)cc3-c3ccc(C#N)c(F)c3)ccc21` (stereo not drawn) [Example 133, 4-[5-[(3-endo)-3-amino-8-azabicyclo[3.2.1]octane-8-carbonyl]-2-(3-methyl-2-oxo-1,3-benzothiazol-6-yl)phenyl]-2-fluoro-benzonitrile], the half-maximal inhibitory concentration (IC50) was 17.7 nM in experiment [2] (HEL cells) and 17.9 nM in experiment [3] (setting [7]).

As to `Cn1ccc2cc(-c3ccc(C(=O)N4CC[C@H](N)C4)cc3-c3ccc(C#N)c(F)c3)c(F)cc21` [Example 134, (S)-5′-(3-aminopyrrolidine-1-carbonyl)-3-fluoro-2′-(6-fluoro-1-methyl-1H-indol-5-yl)-[1,1′-biphenyl]-4-carbonitrile], in experiment [3] (setting [8]), the half-inhibitory concentration (IC50) turned out to be 0.93 nM.

In the case of `CC(C)(O)Cn1ccc2cc(-c3ccc(C(=O)N4C5CCC4CC(N)C5)cc3-c3ccc(C#N)c(F)c3)c(F)cc21` (stereo not drawn) [Example 136, 5′-((3-endo)-3-amino-8-azabicyclo[3.2.1]octane-8-carbonyl)-3-fluoro-2′-(6-fluoro-1-(2-hydroxy-2-methylpropyl)-1H-indol-5-yl)-[1,1′-biphenyl]-4-carbonitrile], the IC50 in experiment [3] (setting [5]) came out at 2.39 nM.

As to `CC(C)(O)Cn1ncc2cc(-c3ccc(C(=O)N4C5CCC4CC(N)C5)cc3-c3ccc(C#N)c(F)c3)c(F)cc21` (stereo not drawn) [Example 142, 5′-((3-endo)-3-amino-8-azabicyclo[3.2.1]octane-8-carbonyl)-3-fluoro-2′-(6-fluoro-1-(2-hydroxy-2-methylpropyl)-1H-indazol-5-yl)-[1,1′-biphenyl]-4-carbonitrile], the half-maximal inhibitory concentration (IC50) in experiment [2] came to 3.88 nM; in experiment [3] (setting [5]), 3.79 nM.

Regarding `COCCc1ccc(-c2ccc(C(=O)N3CCCC(N)CC3)cc2-c2ccc(C#N)c(F)c2)c(F)c1` (centres unmarked) [Example 165, 5′-(4-aminoazepan-1-carbonyl)-2″,3-difluoro-4″-(2-methoxyethyl)-[1,1′:2′,1″-terphenyl]-4-carbonitrile], the IC50 was 0.62 nM in experiment [2] (Homo sapiens, HEL) and 1.42 nM in experiment [3] (setting [8]).

For the molecule `CC(C)(O)Cn1ccc2cc(-c3ccc(C(=O)C4CC5(CNC5)CN4)cc3-c3ccc(C#N)c(F)c3)c(F)c(F)c21` (centres unmarked) [Example 200, 2′-(6,7-difluoro-1-(2-hydroxy-2-methylpropyl)-1H-indol-5-yl)-3-fluoro-5′-(2,7-diazaspiro[3.4]octane-6-carbonyl)-[1,1′-biphenyl]-4-carbonitrile], the IC50 in experiment [3] (setting [8]) is 0.18 nM.

Regarding `CCC(O)(CC)Cn1ncc2cc(-c3ccc(C(=O)N4CC[C@H](N)C4)cc3-c3ccc(C#N)c(F)c3)c(F)cc21` [Example 204, (S)-5′-(3-aminopyrrolidine-1-carbonyl)-2′-(1-(2-ethyl-2-hydroxybutyl)-6-fluoro-1H-indazol-5-yl)-3-fluoro-[1,1′-biphenyl]-4-carbonitrile], in experiment [3] (setting [8]), the half-maximal inhibitory concentration (IC50) amounted to 1.98 nM.

Regarding `N#Cc1ccc(-c2cc(C(=O)N3CC[C@H](N)C3)ccc2-c2cc3nnn(CC4(O)CCC4)c3c(C(F)F)c2F)cc1F` [Example 261, (S)-5′-(3-aminopyrrolidine-1-carbonyl)-2′-(7-(difluoromethyl)-6-fluoro-1-((1-hydroxycyclobutyl)methyl)-1H-benzo[d][1,2,3]triazol-5-yl)-3-fluoro-[1,1′-biphenyl]-4-carbonitrile], in experiment [1] (setting [4]), the half-maximal inhibitory concentration (IC50) is 32.3 nM.
